Assay: mn = molality of the nth substance listed, in mol/kg
Conditions: 75 kPa, Liquid, Buoyancy - hydrostatic balance with magnetic suspension - one sinker

NCC(=O)O [2-aminoacetic acid] + O
Conditions | mass density [kg/m3]
275.63 K, m1 = 0.02975 | 1000.98
275.63 K, m1 = 0.03917 | 1001.3
275.63 K, m1 = 0.05033 | 1001.69
275.63 K, m1 = 0.0596 | 1002
275.63 K, m1 = 0.07025 | 1002.37
275.63 K, m1 = 0.07948 | 1002.68
275.63 K, m1 = 0.089 | 1003.01
275.63 K, m1 = 0.09846 | 1003.34
276.13 K, m1 = 0.03055 | 1001.01
276.13 K, m1 = 0.04004 | 1001.34
276.13 K, m1 = 0.05063 | 1001.71
276.13 K, m1 = 0.05984 | 1002.02
276.13 K, m1 = 0.06886 | 1002.32
276.13 K, m1 = 0.08159 | 1002.76
276.13 K, m1 = 0.08976 | 1003.05
276.13 K, m1 = 0.1001 | 1003.39
276.69 K, m1 = 0.02962 | 1000.98
276.69 K, m1 = 0.03964 | 1001.32
276.69 K, m1 = 0.04889 | 1001.63
276.69 K, m1 = 0.06028 | 1002.02
276.69 K, m1 = 0.06972 | 1002.34
276.69 K, m1 = 0.07961 | 1002.68
276.69 K, m1 = 0.0885 | 1002.98
276.69 K, m1 = 0.1008 | 1003.39
277.12 K, m1 = 0.02962 | 1000.96
277.12 K, m1 = 0.03964 | 1001.31
277.12 K, m1 = 0.04889 | 1001.62
277.12 K, m1 = 0.06028 | 1002.01
277.12 K, m1 = 0.06972 | 1002.32
277.12 K, m1 = 0.07961 | 1002.66
277.12 K, m1 = 0.0885 | 1002.97
277.12 K, m1 = 0.1008 | 1003.38
277.67 K, m1 = 0.02975 | 1000.98
277.67 K, m1 = 0.03917 | 1001.3
277.67 K, m1 = 0.05033 | 1001.68
277.67 K, m1 = 0.0596 | 1002
277.67 K, m1 = 0.07025 | 1002.36
277.67 K, m1 = 0.07948 | 1002.67
277.67 K, m1 = 0.085 | 1002.85
277.67 K, m1 = 0.09846 | 1003.32
278.12 K, m1 = 0.02966 | 1000.97
278.12 K, m1 = 0.04207 | 1001.38
278.12 K, m1 = 0.05006 | 1001.65
278.12 K, m1 = 0.06152 | 1002.04
278.12 K, m1 = 0.06869 | 1002.28
278.12 K, m1 = 0.0814 | 1002.71
278.12 K, m1 = 0.08635 | 1002.88
278.12 K, m1 = 0.09984 | 1003.33
278.65 K, m1 = 0.02951 | 1000.95
278.65 K, m1 = 0.04154 | 1001.35
278.65 K, m1 = 0.04986 | 1001.64
278.65 K, m1 = 0.05429 | 1001.78
278.65 K, m1 = 0.07168 | 1002.36
278.65 K, m1 = 0.08119 | 1002.67
278.65 K, m1 = 0.0895 | 1002.96
278.65 K, m1 = 0.09674 | 1003.2

CCC(N)C(=O)O (stereo not drawn) [(.+-.)-α-aminobutyric acid] + O
Conditions | mass density [kg/m3]
275.63 K, m1 = 0.03017 | 1000.84
275.63 K, m1 = 0.03851 | 1001.09
275.63 K, m1 = 0.04794 | 1001.36
275.63 K, m1 = 0.06041 | 1001.72
275.63 K, m1 = 0.072 | 1002.07
275.63 K, m1 = 0.07612 | 1002.18
275.63 K, m1 = 0.08971 | 1002.58
275.63 K, m1 = 0.0967 | 1002.78
276.13 K, m1 = 0.03035 | 1000.85
276.13 K, m1 = 0.03896 | 1001.1
276.13 K, m1 = 0.04967 | 1001.42
276.13 K, m1 = 0.05823 | 1001.67
276.13 K, m1 = 0.07075 | 1002.03
276.13 K, m1 = 0.08046 | 1002.31
276.13 K, m1 = 0.0901 | 1002.6
276.13 K, m1 = 0.0968 | 1002.78
276.69 K, m1 = 0.0256 | 1000.72
276.69 K, m1 = 0.03484 | 1000.99
276.69 K, m1 = 0.04383 | 1001.25
276.69 K, m1 = 0.05138 | 1001.47
276.69 K, m1 = 0.06131 | 1001.77
276.69 K, m1 = 0.06872 | 1001.99
276.69 K, m1 = 0.0783 | 1002.24
276.69 K, m1 = 0.08694 | 1002.51
277.12 K, m1 = 0.03035 | 1000.86
277.12 K, m1 = 0.03896 | 1001.12
277.12 K, m1 = 0.04967 | 1001.42
277.12 K, m1 = 0.05823 | 1001.68
277.12 K, m1 = 0.07075 | 1002.04
277.12 K, m1 = 0.08046 | 1002.31
277.12 K, m1 = 0.0901 | 1002.6
277.12 K, m1 = 0.0968 | 1002.79
277.67 K, m1 = 0.0256 | 1000.71
277.67 K, m1 = 0.03484 | 1000.99
277.67 K, m1 = 0.04383 | 1001.25
277.67 K, m1 = 0.05138 | 1001.47
277.67 K, m1 = 0.06131 | 1001.76
277.67 K, m1 = 0.06872 | 1001.99
277.67 K, m1 = 0.0783 | 1002.25
277.67 K, m1 = 0.08694 | 1002.51
278.12 K, m1 = 0.03122 | 1000.86
278.12 K, m1 = 0.04081 | 1001.16
278.12 K, m1 = 0.04913 | 1001.38
278.12 K, m1 = 0.05983 | 1001.72
278.12 K, m1 = 0.07098 | 1002.05
278.12 K, m1 = 0.08031 | 1002.3
278.12 K, m1 = 0.09051 | 1002.6
278.12 K, m1 = 0.09974 | 1002.85
278.65 K, m1 = 0.0312 | 1000.86
278.65 K, m1 = 0.04081 | 1001.12
278.65 K, m1 = 0.04913 | 1001.35
278.65 K, m1 = 0.05983 | 1001.67
278.65 K, m1 = 0.07098 | 1002
278.65 K, m1 = 0.08031 | 1002.27
278.65 K, m1 = 0.09051 | 1002.57
278.65 K, m1 = 0.0997 | 1002.85

CC(N)C(=O)O (stereo not drawn) [DL-2-aminopropanoic acid] + O
Conditions | mass density [kg/m3]
275.63 K, m1 = 0.0294 | 1000.85
275.63 K, m1 = 0.04005 | 1001.17
275.63 K, m1 = 0.04974 | 1001.47
275.63 K, m1 = 0.0592 | 1001.76
275.63 K, m1 = 0.0695 | 1002.07
275.63 K, m1 = 0.08475 | 1002.53
275.63 K, m1 = 0.0911 | 1002.72
275.63 K, m1 = 0.1019 | 1003.05
276.13 K, m1 = 0.03044 | 1000.88
276.13 K, m1 = 0.04034 | 1001.19
276.13 K, m1 = 0.04918 | 1001.46
276.13 K, m1 = 0.05989 | 1001.78
276.13 K, m1 = 0.07063 | 1002.11
276.13 K, m1 = 0.07952 | 1002.37
276.13 K, m1 = 0.09022 | 1002.69
276.13 K, m1 = 0.09952 | 1002.98
276.69 K, m1 = 0.03006 | 1000.88
276.69 K, m1 = 0.04009 | 1001.19
276.69 K, m1 = 0.04963 | 1001.48
276.69 K, m1 = 0.0606 | 1001.81
276.69 K, m1 = 0.0711 | 1002.13
276.69 K, m1 = 0.07938 | 1002.37
276.69 K, m1 = 0.08509 | 1002.54
276.69 K, m1 = 0.09839 | 1002.95
277.12 K, m1 = 0.03044 | 1000.89
277.12 K, m1 = 0.04034 | 1001.19
277.12 K, m1 = 0.0492 | 1001.46
277.12 K, m1 = 0.05989 | 1001.78
277.12 K, m1 = 0.07063 | 1002.1
277.12 K, m1 = 0.07952 | 1002.37
277.12 K, m1 = 0.09022 | 1002.7
277.12 K, m1 = 0.09952 | 1002.97
277.67 K, m1 = 0.02944 | 1000.85
277.67 K, m1 = 0.04005 | 1001.17
277.67 K, m1 = 0.04974 | 1001.46
277.67 K, m1 = 0.0592 | 1001.74
277.67 K, m1 = 0.0695 | 1002.06
277.67 K, m1 = 0.08475 | 1002.51
277.67 K, m1 = 0.0911 | 1002.7
277.67 K, m1 = 0.1019 | 1003.04
278.12 K, m1 = 0.03078 | 1000.9
278.12 K, m1 = 0.03875 | 1001.11
278.12 K, m1 = 0.04963 | 1001.45
278.12 K, m1 = 0.05968 | 1001.76
278.12 K, m1 = 0.0709 | 1002.09
278.12 K, m1 = 0.07928 | 1002.34
278.12 K, m1 = 0.09099 | 1002.69
278.12 K, m1 = 0.1006 | 1002.98
278.65 K, m1 = 0.03078 | 1000.89
278.65 K, m1 = 0.03875 | 1001.13
278.65 K, m1 = 0.04963 | 1001.45
278.65 K, m1 = 0.05968 | 1001.75
278.65 K, m1 = 0.0709 | 1002.09
278.65 K, m1 = 0.07928 | 1002.34
278.65 K, m1 = 0.09099 | 1002.68
278.65 K, m1 = 0.1006 | 1002.96

— the NIST ThermoML archive (doi:10.1016/j.jct.2015.04.024)
